Assay results as given in PMC8402726 (Viruses, 2021).
Like-named read-outs stand apart in the source and are kept apart here.

Assays:
SARS-CoV-2 [1] = assay: microbe, parasite or virus in culture; assay type: cell-based; conditions: for SI: CC50/EC50, CaCo-2 cells, SARS-CoV-2; for EC50: Severe acute respiratory syndrome coronavirus 2, CaCo-2 cells, MOI 0.1, 48 h, 50% reduction in viral titers, read-out: EC50 (µM) (95% CI)
FIPV = assay: Viral titer reduction assay, FIPV in CRFK cells (plaque assay readout); assay type: cell-based, feline infectious peritonitis virus; conditions: for Inhibition of FIPV replication at single concentration: 50 µM, initial screening; for Inhibition of FIPV replication at single concentration / EC50 / Anti-FIPV activity lower compared with remdesivir: CRFK cells; for SI: CC50/EC50, CRFK cells; for SI / EC50: FIPV; for EC50: MOI 0.1, 48 h, 50% reduction in viral titers, read-out: EC50 (µM) (95% CI); for Anti-FIPV activity lower compared with remdesivir: relative to remdesivir EC50
in vitro [2] = conditions: African green monkey
in vitro [3] = conditions: cat (Felis catus)
in vitro [4] = conditions: human
SARS-CoV-2 [5] = assay: microbe, parasite or virus in culture; assay type: cell-based; conditions: for Inhibition of SARS-CoV-2 replication at single concentration: 50 µM, initial screening; for Inhibition of SARS-CoV-2 replication at single concentration / EC50: Vero cells; for SI: CC50/EC50, Vero cells, SARS-CoV-2; for EC50: Severe acute respiratory syndrome coronavirus 2, MOI 0.1, 48 h, 50% reduction in viral titers, read-out: EC50 (µM) (95% CI)
SARS-CoV-2 RdRp = SARS-CoV-2 RdRp (Severe acute respiratory syndrome coronavirus 2, UniProt P0DTD1); assay: biochemical; assay type: biochemical; conditions: for Inhibition of SARS-CoV-2 RdRp at one concentration: in vitro RdRp assay, 100 µM
Vero cells = conditions: 50 µM
CaCo-2 cells = conditions: 50 µM
[6] = Cytotoxicity (Cell Counting Kit-8, WST-8) in CRFK cells; conditions: cat (Felis catus)
[7] = Cytotoxicity (Cell Counting Kit-8, WST-8) in Vero cells; conditions: African green monkey
[8] = Cytotoxicity (Cell Counting Kit-8, WST-8) in CaCo-2 cells; conditions: human
[9] = radioactive primer extension assay, n = 3, ± standard error of the mean, read-out: IC50

Row | Compound | SI (SARS-CoV-2 [1]) | EC50 (SARS-CoV-2 [1]) [µM] | Inhibition of FIPV replication at single concentration (FIPV) | SI (FIPV) | EC50 (FIPV) [µM] | Anti-FIPV activity lower compared with remdesivir (FIPV) | CC50 at 48 h (in vitro [2]) [µM] | CC50 at 48 h (in vitro [3]) [µM] | CC50 at 48 h (in vitro [4]) [µM] | Inhibition of SARS-CoV-2 replication at single concentration (SARS-CoV-2 [5]) | SI (SARS-CoV-2 [5]) | EC50 (SARS-CoV-2 [5]) [µM] | Inhibition of SARS-CoV-2 RdRp at one concentration (SARS-CoV-2 RdRp) | IC50 (SARS-CoV-2 RdRp; [9]) [µM] | also measured
1 | O=C(N[C@@H](Cc1ccc(O)cc1)C(=O)O)c1cc(-c2ccccc2)c(=O)n2c1sc1ccc(OC3CCCCC3)cc12 [Compound 16, reference compound] | >52.7 | 0.949 | completely inhibit | >47.1 | 1.06 | approx. 5 fold | > 50 | > 50 | > 50 | completely inhibit | >76.5 | 0.653 | inhibit |  | SI (SARS-CoV-2 [1]; listed as HeE1-2Tyr (16)): > 50; SI (FIPV; listed as HeE1-2Tyr (16)): exceeding 40; SI (SARS-CoV-2 [5]; listed as HeE1-2Tyr (16)): > 70; IC50 (SARS-CoV-2 RdRp): 27.6 ± 2.1 µM
2 | O=C(N[C@@H](Cc1ccccc1)C(=O)O)c1cc(-c2ccccc2)c(=O)n2c1sc1ccc(OC3CCCCC3)cc12 [Compound 17] | >50.2 | 0.996 | completely inhibit |  | 0.999 | approx. 5 fold | > 50 | > 50 | > 50 | completely inhibit | >94.8 | 0.527 | inhibit | 41.2 ± 1.7 | viability at 48 h, 50 µM (in vitro [3]): ~60%; Cell viability (Vero cells): approx. 125 % of untreated cells; Cell viability (CaCo-2 cells): approx. 125 % of untreated cells
3 | O=C(N[C@@H](Cc1ccc(O)cc1)C(=O)O)c1ccc(=O)n2c1sc1ccc(OC3CCCCC3)cc12 [Compound 18] | >2 | > 25 | inactive | >1 |  |  | > 50 | > 50 | > 50 | inactive | >1 | > 50 | inhibit | 85.5 ± 2 | 
4 | CCC(CC)COC(=O)[C@H](C)N[P@](=O)(OC[C@H]1O[C@@](C#N)(c2ccc3c(N)ncnn23)[C@H](O)[C@@H]1O)Oc1ccccc1 [Remdesivir] |  | < 0.3 |  | >224.2 |  |  |  |  |  |  | >55.5 | 0.901 |  |  | CC50 at 48 h [6]: > 50 µM; CC50 at 48 h [7]: > 50 µM; CC50 at 48 h [8]: > 50 µM
